Converted amounts (≈) assume the structure as drawn. “And” between values parts separate entries of the source, which are not always exact repeats. Equal values may be shown once.

This is an account of results in DBAASP.

Test systems include Pseudomonas aeruginosa 9; Serratia rubidaea X01; Candida albicans 820; Escherichia coli ML-35p.
Holding throughout (assay): ≥ marks a high value that may be exact or a test limit, other limits are often not marked, values filed in µg/mL are converted to µM
Test [1] has as its system Enterococcus faecalis W61950.
The test system of test [2] is Enterococcus faecium t62764.
The subject of test [3] is Pseudomonas aeruginosa PAO1 H103.
The subject of test [4] is Pseudomonas aeruginosa H1027.
Test [5] concerns Stenotrophomonas maltophilia ATCC 13637.
The subject of test [6] is Enterococcus faecalis f43559.
The subject of test [7] is Enterococcus faecalis ATCC 29212.
The subject of test [8] is Escherichia coli ESBL 64771.
Test [9] deals with Enterobacter cloacae 218R.
In test [10] the test system is Staphylococcus aureus C623.
The test system of test [11] is Staphylococcus aureus ATCC 25923.
Test [12] relates to Pseudomonas aeruginosa LES400.
Test [13] deals with Klebsiella pneumoniae ESBL 61962.
Test [14] relates to Escherichia coli ESBL 63103.
Test [15] relates to Enterococcus faecium mic80.
Test [16] has as its system Klebsiella pneumoniae ESBL 63575.
Test [17] has as its system Pseudomonas aeruginosa 198.
Test [18] has as its system Pseudomonas aeruginosa H1030.
Test [19] deals with Pseudomonas aeruginosa 213.
The subject of test [20] is Staphylococcus aureus PTCC 1431.
For test [21], the system named is Escherichia coli HP101BA 7601c.
The subject of test [22] is Micrococcus luteus PTCC 1625.
The subject of test [23] is Klebsiella pneumoniae PTCC 1388.
In test [24] the test system is Pseudomonas aeruginosa ATCC 27853.
Test [25] deals with Escherichia coli ATCC 25922.
The subject of test [26] is Candida albicans ATCC 90028.
The test system of test [27] is Klebsiella pneumoniae KK3 9904.
In test [28] the test system is Enterobacter cloacae NHTCC 53001.
Test [29] deals with Staphylococcus aureus NCTC 8325.
Test [30] deals with Enterococcus faecalis 981.
Test [31] has as its system Candida albicans ATCC 10231.
For test [32], the system named is Psychrobacter faecalis X29.
The subject of test [33] is Pseudomonas aeruginosa 11053.
Test [34] concerns Staphylococcus carnosus KHS.
Test [35] has as its system Rhodococcus rhodochrous X15.
Test [36] relates to Bacillus licheniformis X39.
Test [37] concerns Listeria monocytogenes EGD.

Broadly, the MIC is the least concentration at which growth counts as inhibited. Low readings indicate a more susceptible organism, high ones a less susceptible organism. On to `NCCCC[C@H](NC(=O)[C@H](CCCCN)NC(=O)[C@H](Cc1c[nH]c2ccccc12)NC(=O)[C@H](Cc1c[nH]c2ccccc12)NC(=O)[C@H](CCCN=C(N)N)NC(=O)[C@H](CCCCN)NC(=O)[C@@H](N)Cc1c[nH]c2ccccc12)C(=O)N[C@@H](Cc1c[nH]c2ccccc12)C(=O)N[C@@H](CCCN=C(N)N)C(=O)O` [WKRWWKKWR], for which the MIC in test [1] is not below 87 µM; in test [2], 2.74 µM (≈ 4 µg/mL); in test [3] it was 11 µM (≈ 16 µg/mL); in [4] it was 2.74 µM (≈ 4 µg/mL); in [5], 0.685 µM (≈ 1 µg/mL); in test [6], not below 87 µM. Also, the MIC was 43.2 µM (≈ 63 µg/mL) in test [7]; 1.37 µM (≈ 2 µg/mL) in [8]; not below 43.2 µM in test [9]; 2.74 µM (≈ 4 µg/mL) in test [10]; 2.74 µM (≈ 4 µg/mL) in test [11]; 11 µM (≈ 16 µg/mL) in test [12]. For the same compound, the minimal inhibitory concentration (MIC) in test [13] was not below 87 µM; in test [14], 11 µM (≈ 16 µg/mL); in test [15] it was 11 µM (≈ 16 µg/mL); with Pseudomonas aeruginosa 9, 21.2 µM (≈ 31 µg/mL); in test [16], 21.2 µM (≈ 31 µg/mL); in [17], 21.2 µM (≈ 31 µg/mL). Also, the minimal inhibitory concentration (MIC) in test [18] is 21.2 µM (≈ 31 µg/mL); in test [19], not below 43.2 µM.
Turning to `CC(C)C[C@H](NC(=O)CNC(=O)[C@H](C)NC(=O)[C@@H](N)CCCN=C(N)N)C(=O)N[C@@H](CCCCN)C(=O)N[C@@H](Cc1ccccc1)C(=O)N1CCC[C@H]1C(=O)N[C@H](C(=O)NCC(=O)N[C@@H](CCCN=C(N)N)C(=O)N[C@H](C(=O)N[C@@H](Cc1cnc[nH]1)C(=O)N[C@@H](CCCN=C(N)N)C(=O)N[C@@H](CC(C)C)C(=O)N[C@@H](CC(C)C)C(=O)N[C@@H](CCCN=C(N)N)C(=O)O)C(C)C)C(C)C` [RAGLKFPVGRVHRLLR], the MIC in test [20] was determined as 8.1 µM (≈ 15.2 µg/mL); in test [21], 9.6 µM (≈ 18 µg/mL); in test [22], 6 µM (≈ 11.3 µg/mL); in test [23], 10.6 µM (≈ 19.9 µg/mL).
`CC[C@H](C)[C@H](NC(=O)[C@H](Cc1cnc[nH]1)NC(=O)[C@H](CCCCN)NC(=O)CNC(=O)[C@H](C)NC(=O)[C@@H](NC(=O)[C@H](CCCCN)NC(=O)[C@H](CC(C)C)NC(=O)[C@@H](NC(=O)CNC(=O)[C@H](CCCCN)NC(=O)[C@H](CC(C)C)NC(=O)[C@@H](NC(=O)[C@H](CO)NC(=O)[C@H](CCSC)NC(=O)[C@H](CC(C)C)NC(=O)CN)C(C)C)C(C)C)[C@@H](C)O)C(=O)N[C@@H](Cc1ccccc1)C(=O)N[C@@H](CCCCN)C(=O)N[C@@H](CC(N)=O)C(=O)N[C@H](C(=O)NCC(=O)NCC(=O)N[C@@H](CO)C(=O)N[C@@H](CC(C)C)C(=O)N[C@@H](CC(C)C)C(=O)N[C@@H](CC(=O)O)C(=O)N[C@@H](CCC(N)=O)C(=O)N[C@@H](C)C(=O)N[C@@H](CCCCN)C(=O)N[C@H]1CSSC[C@@H](C(=O)O)NC(=O)[C@H](CCC(N)=O)NC(=O)CNC(=O)[C@H]([C@@H](C)O)NC(=O)[C@H]([C@@H](C)CC)NC(=O)[C@H](CCCCN)NC1=O)C(C)C` [GLMSVLKGVLKTAGKHIFKNVGGSLLDQAKCKITGQC]: the MIC is 3 µM (≈ 11.5 µg/mL) in [24]; 3 µM (≈ 11.5 µg/mL) in test [25]; not below 100 µM in test [26]; 6 µM (≈ 23.1 µg/mL) in test [27]; 6 µM (≈ 23.1 µg/mL) in test [28]; 25 µM (≈ 96.1 µg/mL) in test [29].
In the case of `CC[C@H](C)[C@@H]1NC(=O)[C@H](CCCCN)NC(=O)[C@@H](NC(=O)[C@H](Cc2ccccc2)NC(=O)[C@H](CC(C)C)NC(=O)[C@@H](NC(=O)[C@@H]2CCCN2C(=O)[C@@H](NC(=O)[C@@H](NC(=O)[C@H](CCCCN)NC(=O)[C@H](CO)NC(=O)[C@H](C)NC(=O)[C@@H](NC(=O)[C@H](CC(N)=O)NC(=O)[C@H](CC(C)C)NC(=O)[C@H](CC(C)C)NC(=O)[C@@H](NC(=O)[C@H](CO)NC(=O)[C@H](CC(C)C)NC(=O)[C@@H](N)Cc2ccccc2)[C@@H](C)O)C(C)C)C(C)C)C(C)C)[C@@H](C)O)CSSC[C@@H](C(=O)O)NC(=O)[C@H](CCCCN)NC(=O)[C@H](CCCCN)NC(=O)[C@H]([C@@H](C)O)NC1=O` [FLSTLLNVASKVVPTLFCKITKKC], the MIC in test [25] is 150 µM (≈ 398 µg/mL); in [30], 9 µM (≈ 23.9 µg/mL); against Serratia rubidaea X01, 9 µM (≈ 23.9 µg/mL); in [31] it was 150 µM (≈ 398 µg/mL); in test [32] it was 9 µM (≈ 23.9 µg/mL); in [33] it was not below 75 µM. The MIC is 9 µM (≈ 23.9 µg/mL) in test [11], 9 µM (≈ 23.9 µg/mL) in [34], 2.3 µM (≈ 6.1 µg/mL) in [35] and 9 µM (≈ 23.9 µg/mL) in test [36].
As to `CC[C@H](C)[C@@H]1NC(=O)[C@H](CCCN=C(N)N)NC(=O)[C@@H]2CSSC[C@@H]3NC(=O)[C@H](C(C)C)NC(=O)CNC(=O)[C@H](Cc4ccccc4)NC(=O)[C@H](Cc4ccc(O)cc4)NC(=O)[C@H](C(C)C)NC(=O)[C@H](CCC(=O)O)NC(=O)[C@H](CC(C)C)NC(=O)CNC(=O)[C@H](CC(C)C)NC(=O)[C@H](CSSC[C@H](NC(=O)[C@H](CCCN=C(N)N)NC(=O)[C@H](CCCN=C(N)N)NC(=O)[C@H](C)NC(=O)[C@H](CC(C)C)NC(=O)[C@H](CCCN=C(N)N)NC(=O)CNC(=O)[C@H](Cc4cnc[nH]4)NC(=O)[C@H](CC(C)C)NC(=O)[C@H](Cc4ccccc4)NC3=O)C(=O)N[C@H](C(=O)N[C@@H](CCCN=C(N)N)C(=O)O)CSSC[C@H](NC(=O)[C@@H](NC(=O)[C@@H](N)CCCN=C(N)N)[C@@H](C)CC)C(=O)N[C@@H](CCCN=C(N)N)C(=O)N2)NC(=O)[C@H](CCCN=C(N)N)NC(=O)CNC1=O` [RICRCRIGRCLGLEVYFGVCFLHGRLARRCCR], the MIC in the test on Candida albicans 820 was 4 µM and 7.5 µM; in the test with Escherichia coli ML-35p it was 1.7 µM and 2.9 µM; in test [37], 2.1 µM and 1.9 µM.
